# Measurements from patent US20120148718A1, “METHOD FOR CONDITIONING ANIMAL FEED” (priority 2009, published 2012).
# Assay: Surface tension of 5% solutions in water (Fisher Surface Tensiomat Model 21)
# Type: physicochemical
# Conditions: surfactants, Table 2
# Experimental: The surface tensions of various organic acids and different formulations of the present invention were determined. Solutions were diluted to 5% in water and tested using a Fisher Surface Tensiomat Model 21.
# Polysorbate-80 is allowed only for use in milk replacers and not for feed application. In the European Union ethoxylated castor oil surfactant is allowed for use in all animals. In order to determine a suitable surfactant to replace polysorbate-80, the surface tensions of different PEG ethoxylated castor oil surfactants were tested in 5% solutions.
# The two best formulations from Example 1 were prepared using polysorbate-80 or castor oil PEG-60. The surface tension of 5% solutions of each formulation in water was determined.
substance,measurement,value
Polysorbate-80,Surface Tension,40.57 dynes/cm
